Measured values from US20240254135A1, “POLYPHENOL COMPOUNDS” (Epirium Bio Inc., priority 2022, published 2024).

Key:
[1] = Pharmacokinetics: quantitative determination in mice plasma (LCMS); type: in vivo, C57BL/6 Mice; settings: C57BL/6, mouse, 10 mg/kg PO single dose, 10% NMP vehicle; for AUC(0-t): read-out: AUC0-4 h
Protocol: C57BL/6 Mice, Age 7-9 weeks, body weight range 20-25 g were used. The mice were fasted overnight. Mice were dosed once a day for a single day at 10 mg/kg, 10 mg/kg. 6 time-points were used for whole blood. 10% NMP was used as a vehicle. 9 animals were used per treatment, with three groups of three animals each. Group 1 had time points at 15 and 60 minutes, Group 2 had time points at 30 and 120 minutes, and Group 3 had time points at 90 and 240 minutes. An Oral (PO) route was used. Plasma and brain samples were collected (brain sample collected at terminal time point). Plasma was collected through the centrifugation of whole blood at 10,000 rpm for 10 minutes at 4° C. Samples were stored at −80° C. until processing.
1.00 mg/mL in 100% MeOH PP vials (prepared at RT yellow light) at 2-8° C. were used as stock solution. 12.22-50000 ng/ml using 80% MeOH PP vials (prepared at RT yellow light) at 2-8° C. were used as working solution. 0.98-4000 ng/ml (prepared at RT yellow light) was used for the curve range. For Compounds 75b and 78a, 1.00 mg/mL of Compound 79 in 100% methanol Ria vials (Prepared at RT yellow light) was used as IS stock solution, and 60 ng/ml of Compound 79 in 80% methanol (Prepared at RT yellow light) was used as IS working solution. For Compound 76b, 1.00 mg/mL of Compound 44 in 100% methanol Ria vials (Prepared at RT yellow light) was used as IS stock solution, and 60 ng/ml of Compound 44 in 80% methanol (Prepared at RT yellow light) was used as IS working solution. A linear, 1/x2 fit type was used. The injection volume was 15 μL. Mobile Phase A was 0.1% Formic Acid in water at room temperature. Mobile Phase B was 100% methanol at room temperature. R0 wash solution was 80% methanol at room temperature. R^3 wash solution was IPA/MeOH/ACN/water (1:1:1:1) at room temperature. The column was Agilent Eclipse 50*2.1 mm 1.8 μm and the instrument was Shimadzu LC-40 UPLC and AB Sciez 6500+ with LCMS002.
For Compound 75b, using a pipette with Methanol-rinsed pipette tips, 25 μL of each sample was aliquoted (calibration curve sample, QC samples and blank matrix) to labeled 12×75-mm glass tubes. Using Methanol-rinsed pipette tips, 5.0 μL of IS of conc. 60 ng (Compound 79) was aliquoted to each standards and samples except Blank. All tubes were mixed on a multi-tube vortex for approximately 30 seconds. 50 μL of 10 mM Sodium bicarbonate were added. 1 ml of Ethyl Acetate was added. All tubes were mixed on a multi-tube vortex for approximately 5 minutes then centrifuged for 10 min at 5,000 rpm, 4° C. The sample was kept in methanol containing dry ice for a few seconds to freeze the Aqueous layer (flash freeze method). The upper organic layer was poured from the frozen tubes into the labeled 12×75-mm glass tubes then evaporated to dryness under nitrogen using Liquid Evaporator (30° C., ˜15 psi, ˜10 mins). 200 μl of reconstitution solution (0.1% Acetic acid:MeOH (60:40 v/v) were added into each tube. Samples were vortexed for 30 seconds then transferred to amber glass injection vials for injection.
For Compounds 76b and 78a, using a pipette, 25 μL of each sample were aliquoted (calibration curve sample, QC samples and blank matrix) to labeled 1.5 ml eppendorfs. Using a pipette, 5.0 μL of IS of conc. 100 ng (Cocktail IS) was aliquoted to each standards and samples except Blank. All tubes were mixed on a multi-tube vortex for approximately 30 seconds. 1 ml of tert-butyl methyl ether (TBME) was added. All tubes were mixed on a multi-tube vortex for approximately 5 minutes then centrifuged for 10 min at 10,000 rpm, 4° C. The sample was kept in methanol containing dry ice for few seconds to freeze the Aqueous layer (flash freeze method). The upper organic layer was poured from the frozen tubes into the labeled 12×75-mm rial vials then vaporated to dryness under nitrogen using Liquid Evaporator (30° C., −15 psi, 10 mins). 200 μl of reconstitution solution (10 mM Ammonium Formate: MeOH) (40:60 v/v) was added into each tube. […]

[2] = target: T1, mitochondrial ATP synthase (Mus musculus, UniProt P56480+Q03265); test: Maximal ATP hydrolysis capacity in frozen heart mitochondria; type: biochemical; settings: frozen mitochondria (FIGS. 3 and 4)
T1 construct: from tissue; host or cells: mouse heart, isolated mitochondria (fresh or frozen)
Protocol: ATP hydrolysis capacity or state 4 acidification was measured using Seahorse XF96 as described in Divakaruni et al. (2018) Anal Biochem 552:60-65 and Acin-Perez et al. (2021) Life 11(9):949, in MAS (70 mM Sucrose, 220 mM Mannitol, 5 mM KH2PO4, 5 mM MgCl2, 1 mM EGTA, 2 mM HEPES; pH 7.2). Plates were loaded with 0.75-1.5 μg of mouse heart mitochondria, or 25 μg of cell lysate. Cell lysates were prepared by subjecting the samples to 4 cycles of free thaw (liquid nitrogen—37° C. water bath) before measuring protein concentration. When assessing compounds effect on respirometry, the compounds were added in MAS after sample centrifugation. Initial respiration of the samples was sustained by the addition of 5 mM succinate+2 μM rotenone in the MAS after centrifugation. Injections were performed at the following final concentration in the well: Antimycin A (2 μM), oligomycin (5 μM), FCCP (1 μM), ATP (20 mM). To assess maximal ATP concentration, ATP was injected consecutively.
An additional assay was developed to determine the maximal ATP hydrolysis capacity in frozen mitochondria. Maximal ATP hydrolytic capacity was assessed in frozen heart mitochondria where mitochondrial respiration is inhibited by Antimycin A and maximal ATP hydrolysis is driven by co-injection of FCCP and ATP, followed by inhibition in the presence of oligomycin.

Cmax [1] [ng/mL]	Tmax [1] [min]	AUC(0-t) [1] [ng·h/mL]	decrease in hydrolysis [2] [%]	SMILES
89.3	15	45.7		Oc1cc(O)c2c(c1)OC(c1ccc(O)c(F)c1)C(O)C2 (single isomer, unassigned) [Compound 76b, 2-(3-fluoro-4-hydroxyphenyl)chromane-3,5,7-triol]
138	90	133		COc1cc(C2Oc3ccccc3CC2O)ccc1F (single isomer, unassigned) [Compound 75b, 2-(4-fluoro-3-methoxyphenyl)chroman-3-ol]
49.8	15	59.5		Oc1cc(O)c2c(c1)OC(c1ccccc1)C(O)C2 (single isomer, unassigned) [Compound 78a, 2-phenylchromane-3,5,7-triol]
			25	Oc1ccc2c(c1)OC(c1ccc(O)c(C(F)(F)F)c1)C(O)C2 (single isomer, unassigned) [Compound 77b, 2-(4-hydroxy-3-(trifluoromethyl)phenyl)chromane-3,7-diol]
